This passage reports IC50 results from US8450354B2, “Substituted imidazo[1,2-b]pyridazine derivatives, pharmaceutical compositions, and methods of use as β-secretase inhibitors” (High Point Pharmaceuticals, LLC, priority 2010, dated 2013).

The structures appear in SMILES notation.

As usually defined, the IC50 is the concentration needed to halve the response being measured. Higher therefore signals a need for much substance.

This assay deals with T1, BACE-1 enzyme (Homo sapiens, UniProt P56817).
T1 construct: purchased R & D Systems 931AS
T1 sequence (P56817 46-457 limits assumed): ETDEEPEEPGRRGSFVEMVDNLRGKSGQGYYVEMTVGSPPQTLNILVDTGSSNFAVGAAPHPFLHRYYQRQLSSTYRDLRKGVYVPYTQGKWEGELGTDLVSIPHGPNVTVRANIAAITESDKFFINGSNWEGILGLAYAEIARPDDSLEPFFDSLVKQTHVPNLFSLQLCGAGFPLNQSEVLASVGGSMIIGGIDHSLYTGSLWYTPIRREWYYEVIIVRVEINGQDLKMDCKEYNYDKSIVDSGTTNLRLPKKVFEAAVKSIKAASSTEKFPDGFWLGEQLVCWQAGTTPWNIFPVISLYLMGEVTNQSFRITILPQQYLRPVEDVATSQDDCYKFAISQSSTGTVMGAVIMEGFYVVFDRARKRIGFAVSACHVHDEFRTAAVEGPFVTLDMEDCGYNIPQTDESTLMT
Nature of the assay: BACE Fluorescence Resonance Energy Transfer (FRET) Assay. Type of assay: biochemical. The settings on record: pH 4-4.5, 30 min pre-incubation, about 1.5 hours reaction, asterisk = mean. As for the experimental part: BACE Fluorescence Resonance Energy Transfer (FRET) Assay
In the following assay, the proteolytic activity of BACE is measured by observing cleavage of a fluorescent group from a peptide substrate containing a rhodamine fluorescent donor and a quenching acceptor.
The inhibitory activity of compounds of Formula (I) may be compared to a statine derived control inhibitor STA200 (MP Biomedical Cat. #STA-200). The cleavage reaction occurs when a BACE-1 substrate (Invitrogen, Cat. #P2986) was added to a reaction mixture containing BACE-1 enzyme (R & D Systems, Cat. #931AS) and allowed to proceed for about 1.5 hours. Fluorescence, used as a marker of BACE activity, is monitored using 540 nm excitation and 585 nm emission wavelengths (Envision, Perkin Elmer).
A typical assay reaction contains BACE-1 enzyme-in assay buffer (50 mM sodium acetate, pH 4-4.5, 0.01% CHAPS (3-[(3-Cholamidopropyl)dimethylammonio]-1-propanesulfonate), 0.0125% TritonX-100, 0.006% EDTA) which is pre-incubated for 30 minutes with test compound in 7.5% DMSO. The reaction is initiated with the addition of BACE-1 substrate in assay buffer and allowed to proceed for about 1.5 hours at room temperature. Assays are conducted in black 384-well microtiter plates and scanned at room temperature using 540 nm excitation and 585 nm emission wavelengths.
In some instances, the percent inhibition at a given concentration is reported instead of the IC50.
For the compound `CCN(CC)CCCOc1ccc2nc(C(=O)Nc3nc4cc(-c5cc(F)cc(Cl)c5)ccc4[nH]3)cn2n1` [Example 20], it took 0.205 µM to reach half-maximal inhibition (IC50).
To `CC(C)NCCOc1ccc2nc(C(=O)Nc3nc4cc(-c5cccc(C(F)(F)F)c5)ccc4[nH]3)cn2n1` [Example 38] belongs 0.27 µM; to `CO[C@@H]1CCN(c2ccc3nc(C(=O)Nc4nc5cc(-c6ccc(C)s6)ccc5[nH]4)cn3n2)C1` [Example 90], 1.38 µM; to `O=C(Nc1nc2cc(-c3cc(F)cc(Cl)c3)ccc2[nH]1)c1cn2nc(OCC[C@@H](O)CO)ccc2n1` [Example 129], 0.293 µM.
The result for `O=C(Nc1nc2cc(-c3cc(F)cc(Cl)c3)ccc2[nH]1)c1cn2nc(OCCN3CCCC3)ccc2n1` [Example 19] reads 0.166 µM; that for `O=C(Nc1nc2cc(-c3cccc(C(F)(F)F)c3)ccc2[nH]1)c1cn2nc(N3CCOCC3)ccc2n1` [Example 65], 0.238 µM; that for `CCOCCOCCOc1ccc2nc(C(=O)Nc3nc4cc(-c5cccc(C(F)(F)F)c5)ccc4[nH]3)cn2n1` [Example 11], 0.32 µM.
To `C[C@@H](CO)Oc1ccc2nc(C(=O)Nc3nc4cc(-c5cccc(OC(F)(F)F)c5)ccc4[nH]3)cn2n1` [Example 103] belongs 0.334 µM.
In turn, `CC(C)(C)NCCOc1ccc2nc(C(=O)Nc3nc4cc(-c5cccc(OC(F)(F)F)c5)ccc4[nH]3)cn2n1` [Example 30] registered an IC50 of 0.27 µM.
Compound `CN(C)CCCOc1ccc2nc(C(=O)Nc3nc4cc(-c5cccc(C(F)(F)F)c5)ccc4[nH]3)cn2n1` [Example 72] yielded an IC50 of 0.216 µM.
To `O=C(Nc1nc2cc(-c3cccc(C(F)(F)F)c3)ccc2[nH]1)c1cn2nc(OCCNC3CCCCC3)ccc2n1` [Example 39] belongs 0.197 µM; to `CC(C)(C)NCCOc1ccc2nc(C(=O)Nc3nc4cc(-c5cccc(C(F)(F)F)c5)ccc4[nH]3)cn2n1` [Example 24], 0.291 µM.
With `CN(CCOc1ccc2nc(C(=O)Nc3nc4cc(-c5cccc(OC(F)(F)F)c5)ccc4[nH]3)cn2n1)c1ccccn1` [Example 37], the IC50 came to 0.322 µM.
The result for `CN(C)CCOCCOc1ccc2nc(C(=O)Nc3nc4cc(-c5cccc(C(F)(F)F)c5)ccc4[nH]3)cn2n1` [Example 59] reads 0.194 µM; that for `CCC[C@H](O)COc1ccc2nc(C(=O)Nc3nc4cc(-c5cc(F)cc(Cl)c5)ccc4[nH]3)cn2n1` [Example 125], 1.18 µM; that for `CCOCCOc1ccc2nc(C(=O)Nc3nc4cc(-c5cccc(C(F)(F)F)c5)ccc4[nH]3)cn2n1` [Example 22], 0.249 µM.
The result for `O=C(Nc1nc2cc(-c3cccc(C(F)(F)F)c3)ccc2[nH]1)c1cn2nc(N[C@H]3CCNC3)ccc2n1` [Example 78] reads 0.337 µM; that for `O=C(Nc1nc2cc(-c3cc(F)cc(Cl)c3)ccc2[nH]1)c1cn2nc(OC3CCOCC3)ccc2n1` [Example 16], 0.289 µM; that for `CCOCCCOc1ccc2nc(C(=O)Nc3nc4cc(-c5cccc(C(F)(F)F)c5)ccc4[nH]3)cn2n1` [Example 13], 0.368 µM.
To `CC(C)NCCOc1ccc2nc(C(=O)Nc3nc4cc(-c5cccc(OC(F)(F)F)c5)ccc4[nH]3)cn2n1` [Example 28] belongs 0.253 µM; to `N[C@@H]1CCN(c2ccc3nc(C(=O)Nc4nc5cc(-c6cccc(C(F)(F)F)c6)ccc5[nH]4)cn3n2)C1` [Example 76], 0.23 µM.
For `CNCCOc1ccc2nc(C(=O)Nc3nc4cc(-c5cccc(C(F)(F)F)c5)ccc4[nH]3)cn2n1` [Example 70], the 50% inhibitory concentration (IC50) was found to be 0.381 µM.
The result for `COc1ccc2nc(C(=O)Nc3nc4cc(OCc5ccc(C(F)(F)F)cc5)ccc4[nH]3)cn2n1` [Example 5] reads 0.095 µM; that for `NCCOc1ccc2nc(C(=O)Nc3nc4cc(-c5cccc(C(F)(F)F)c5)ccc4[nH]3)cn2n1` [Example 60], 0.14 µM; that for `CC(C)N(CCOc1ccc2nc(C(=O)Nc3nc4cc(-c5cc(F)cc(Cl)c5)ccc4[nH]3)cn2n1)C(C)C` [Example 48], 0.315 µM.
